The values that follow come from the NIST ThermoML archive (doi:10.1016/j.fluid.2014.10.043).

Numbers after ± are expanded uncertainties.

The conditions of series [1]: 293.2 K; 101.33 kPa; Liquid; Vibrating tube method.
Series [2] can be described thus: refractive index (Na D-line) (dimensionless). The following applies: 293.2 K; 101.33 kPa; Liquid; Standard Abbe refractometry.

On to `CCCC(=O)O` [butanoic acid], for which the mass density in series [1] is recorded as 957.8 ± 0.37 kg/m3. For the same compound, the refractive index in series [2] is reported as 1.3965 ± 0.0005.

As for `CCCCC(=O)OCC` [ethyl pentanoate], the mass density in series [1] was determined as 877.15 ± 0.36 kg/m3. In series [2], the refractive index came out at 1.4125 ± 0.0005.

Regarding `CCCCN(CCCC)CCCC` [tributylamine], the mass density in series [1] is reported as 782.3 ± 0.61 kg/m3. Further, the refractive index in series [2] amounted to 1.4275 ± 0.0006.

On to `CCCCCCCCC(=O)OCC` [ethyl nonanoate], for which, in series [1], the mass density came to 866.3 ± 0.72 kg/m3. Further, in series [2], the refractive index turned out to be 1.4226 ± 0.0006.

On to `CC(=O)c1ccccc1` [acetophenone], for which the mass density in series [1] is recorded as 1027.9 ± 0.93 kg/m3. Also, the refractive index in series [2] stood at 1.5361 ± 0.0006.

For the compound `CCCCCCCCO` [octan-1-ol], the mass density in series [1] stood at 825.95 ± 0.35 kg/m3. In addition, the refractive index in series [2] was determined as 1.428 ± 0.0005.

Turning to `CCCC(=O)OCC` [ethyl butanoate], in series [1], the mass density was found to be 879.18 ± 0.73 kg/m3. The refractive index in series [2] amounted to 1.3918 ± 0.0006.

For `CCOC(=O)CC(=O)OCC` [diethyl 1,3-propanedioate], the mass density in series [1] is listed as 1055.25 ± 0.98 kg/m3. The refractive index in series [2] was found to be 1.4135 ± 0.0006.

For orientation: mass density means mass per unit of volume. Broadly, the refractive index is a measure of how strongly the sample bends light.
